Values quoted from earlier work, collected in patent US5175181A, “Imidazolyl/imidazolylalkyl-N-terminal amino hydroxy” (G. D. Searle & Co., priority 1991, dated 1992).
Square brackets hold non-standard residues; d marks the D form. Peptide text beside a SMILES is read from it. * marks the point of attachment. Sta = CC(C)C[C@H](N)[C@@H](O)CC(=O)O; Isovaleryl = CC(C)CC(=O)*

Tests used:
hog renin = conditions: after injection of hog renin into nephrectomized rats; Gross et al, Science 1971
[1] = test system: aspartyl proteases such as pepsin, cathepsin D and renin; conditions: Umezawa et al, J. Antibiot. 1970

For `CC(C)CC(=O)N[C@H](C(=O)N[C@H](C(=O)N[C@@H](CC(C)C)[C@@H](O)CC(=O)N[C@@H](C)C(=O)N[C@@H](CC(C)C)[C@@H](O)CC(=O)O)C(C)C)C(C)C` [pepstatin] (Isovaleryl-VV[Sta]A[Sta]-OH), the “blood pressure in vivo” value (hog renin) is listed as “reduce blood pressure” and the “inhibition of aspartyl proteases” value [1] is listed as “inhibitor of aspartyl proteases”.
